Laboratory results taken from patent US10251398B2, “Improving shelf life and color profile of resin compositions with silver nanoparticles” (priority 2013, dated 2019).

How the values were obtained:
[1] = in water; cited from earlier work
[2] = silver benzoate combined with solvent DMAEMA; FIG. 1
Text: FIG. 9 compares the resin compositions of FIG. 7 (A) with the color profiles of various resin compositions prepared with the silver benzoate/DMAEMA mixture added to the base resin before mixing with the catalyst resin to polymerize and cured by either light-curing or self-curing (B).

SMILES	water solubility [1]	change in color over time [2]
C=C(C)C(=O)OC [methyl methacrylate (MMA), methyl methacrylate]	about 1.6 g in 100 g of water	
O=C([O-])c1ccccc1.[Ag+] [silver benzoate]		become darker over time
